From the supplement of paper PMC11451515

Test system: P12-Ichikawa
Assay: cell viability relative to DMSO control; higher = less cytotoxic
Settings: 48 h
How it was run: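 NOMO1 or SEM cells were plated at 500 cells/well and P12-Ichikawa cells at 1000 cells/well in 1536-well plates (5 μl), after each leukemia line had been adapted for at least four passages in each medium. Pin dosing delivered library compounds in DMSO at 11 threefold concentrations, 47 μM to 0.79 nM. CellTiter-Glo One luminescence was read after 48 h at 37°C. Viability is reported as a per-plate percentage of DMSO wells, with cell-free wells as background.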

[1] = HPLM + 10% dialyzed FBS, 0.000781 µM
[2] = HPLM + 10% dialyzed FBS, 0.00234 µM
[3] = HPLM + 10% dialyzed FBS, 0.00702 µM
[4] = HPLM + 10% dialyzed FBS, 0.0211 µM
[5] = HPLM + 10% dialyzed FBS, 0.0632 µM
[6] = HPLM + 10% dialyzed FBS, 0.19 µM
[7] = HPLM + 10% dialyzed FBS, 0.569 µM
[8] = HPLM + 10% dialyzed FBS, 1.71 µM
[9] = HPLM + 10% dialyzed FBS, 5.12 µM
[10] = HPLM + 10% dialyzed FBS, 15.4 µM
[11] = HPLM + 10% dialyzed FBS, 46.1 µM
[12] = RPMI 5 mM glucose + 10% FBS, 0.000781 µM
[13] = RPMI 5 mM glucose + 10% FBS, 0.00234 µM
[14] = RPMI 5 mM glucose + 10% FBS, 0.00702 µM
[15] = RPMI 5 mM glucose + 10% FBS, 0.0211 µM
[16] = RPMI 5 mM glucose + 10% FBS, 0.0632 µM
[17] = RPMI 5 mM glucose + 10% FBS, 0.19 µM
[18] = RPMI 5 mM glucose + 10% FBS, 0.569 µM
[19] = RPMI 5 mM glucose + 10% FBS, 1.71 µM
[20] = RPMI 5 mM glucose + 10% FBS, 5.12 µM
[21] = RPMI 5 mM glucose + 10% FBS, 15.4 µM
[22] = RPMI 5 mM glucose + 10% FBS, 46.1 µM
[23] = RPMI 5 mM glucose + 10% dialyzed FBS, 0.000781 µM
[24] = RPMI 5 mM glucose + 10% dialyzed FBS, 0.00234 µM
[25] = RPMI 5 mM glucose + 10% dialyzed FBS, 0.00702 µM
[26] = RPMI 5 mM glucose + 10% dialyzed FBS, 0.0211 µM
[27] = RPMI 5 mM glucose + 10% dialyzed FBS, 0.0632 µM
[28] = RPMI 5 mM glucose + 10% dialyzed FBS, 0.19 µM
[29] = RPMI 5 mM glucose + 10% dialyzed FBS, 0.569 µM
[30] = RPMI 5 mM glucose + 10% dialyzed FBS, 1.71 µM
[31] = RPMI 5 mM glucose + 10% dialyzed FBS, 5.12 µM
[32] = RPMI 5 mM glucose + 10% dialyzed FBS, 15.4 µM
[33] = RPMI 5 mM glucose + 10% dialyzed FBS, 46.1 µM

SMILES | cell viability [1] | cell viability [2] | cell viability [3] | cell viability [4] | cell viability [5] | cell viability [6] | cell viability [7] | cell viability [8] | cell viability [9] | cell viability [10] | cell viability [11] | cell viability [12] | cell viability [13] | cell viability [14] | cell viability [15] | cell viability [16] | cell viability [17] | cell viability [18] | cell viability [19] | cell viability [20] | cell viability [21] | cell viability [22] | cell viability [23] | cell viability [24] | cell viability [25] | cell viability [26] | cell viability [27] | cell viability [28] | cell viability [29] | cell viability [30] | cell viability [31] | cell viability [32] | cell viability [33]
Cn1cc(-c2ccc3ncc(Cc4ccc5ncccc5c4)n3n2)cn1 | 96.8% | 105% | 107% | 107% | 105% | 104% | 113% | 107% | 105% | 107% | 100% | 102% | 108% | 100% | 103% | 102% | 109% | 111% | 107% | 106% | 104% | 102% | 103% | 119% | 112% | 109% | 110% | 104% | 115% | 114% | 102% | 98.7% | 110%
Nc1cccc(-c2cc3c(Oc4cccc(O)c4)ncnc3[nH]2)c1 | 124% | 121% | 123% | 114% | 122% | 114% | 117% | 106% | 105% | 60.5% | 15.1% | – | – | – | – | – | – | – | – | – | – | – | – | – | – | – | – | – | – | – | – | – | –
O=C1c2cccc(O)c2C(=O)c2c(O)cc(CO)cc21 | 97.1% | 100% | 99.9% | 98.1% | 92.7% | 91.2% | 95.2% | 92.8% | 91.9% | 90.7% | 93.4% | 89.6% | 90.1% | 93.7% | 98% | 92.3% | 97% | 88.2% | 97.1% | 92.1% | 96.5% | 104% | 91.1% | 92.2% | 91% | 93.4% | 91.8% | 91.5% | 89% | 86.7% | 88% | 88.3% | 91.3%
NC12CC3CC(CC(C3)C1)C2 | 109% | 98.8% | 103% | 103% | 105% | 111% | 108% | 103% | 117% | 114% | 105% | 102% | 119% | 118% | 120% | 119% | 123% | 112% | 113% | 110% | 109% | 107% | 104% | 113% | 109% | 111% | 115% | 116% | 115% | 118% | 115% | 105% | 103%
CN(C)[C@H]\1[C@@H]2[C@@H](O)[C@@H]\3C(=C)C4=C(C(=CC=C4)O)C(=O)C3=C(\O)[C@@]2(O)C(=O)\C(=C1O)C(N)=O | – | – | – | – | – | – | – | – | – | – | – | 115% | 120% | 124% | 126% | 115% | 128% | 120% | 125% | 122% | 111% | 99.1% | 126% | 122% | 119% | 123% | 129% | 128% | 118% | 117% | 125% | 119% | 107%
CC1OC(OC/2=C(/OC3=C(C(=CC(=C3)O)O)C2=O)C4=CC=C(O)C=C4)C(O)C(OC(C)=O)C1OC(C)=O (stereo unspecified) | 112% | 118% | 111% | 116% | 113% | 108% | 108% | 107% | 101% | 103% | 100% | 108% | 114% | 115% | 112% | 120% | 117% | 103% | 108% | 105% | 96.4% | 103% | 114% | 119% | 117% | 115% | 116% | 114% | 109% | 114% | 111% | 103% | 104%
CN(C)C(=O)COC(=O)Cc1ccc(OC(=O)c2ccc(NC(=N)N)cc2)cc1 | – | 122% | 126% | 134% | 129% | 135% | 134% | 126% | 107% | 98.4% | 70.5% | – | – | – | – | – | – | – | – | – | – | – | – | – | – | – | – | – | – | – | – | – | –
Cc1ccc(F)c(NC(=O)Nc2ccc(-c3cccc4[nH]nc(N)c34)cc2)c1 | 102% | 113% | 107% | 112% | 112% | 115% | 115% | 120% | 116% | 111% | 81.5% | 112% | 113% | 113% | 112% | 118% | 126% | 108% | 126% | 120% | 132% | 95.3% | 105% | 122% | 123% | 122% | 127% | 127% | 97.2% | 132% | 131% | 116% | 92.6%
c1ccc2c(-c3cnn4cc(-c5ccc(N6CCNCC6)cc5)cnc34)ccnc2c1 | 97.9% | 103% | 150% | 144% | 151% | 141% | 146% | 126% | 125% | 121% | 59.3% | 88.7% | 91.2% | 161% | 182% | 191% | 166% | 142% | 123% | 111% | 107% | 2.89% | 96% | 96.6% | 175% | 169% | 168% | 164% | 168% | 138% | 119% | 120% | 3.35%
COC1=CC=C2C(=CC=NC2=C1)OC3=CC=C(NC(=O)\C4=C(C)\N(CC(C)(C)O)N(C4=O)C5=CC=CC=C5)C=C3F | 121% | 123% | 122% | 123% | 123% | 132% | 135% | 132% | 129% | 122% | 118% | – | – | – | – | – | – | – | – | – | – | – | – | – | – | – | – | – | – | – | – | – | –
C[C@H]1[C@@H](CC(C[C@H]2O[C@@H]3O[C@]4(C)CC[C@H]5[C@H](C)CC[C@@H]([C@H]2C)[C@@]35OO4)C[S+](=O)([O-])c2ccc(COC(=O)N(C)C)cc2)O[C@@H]2O[C@]3(C)CC[C@H]4[C@H](C)CC[C@@H]1[C@@]24OO3 | 114% | 111% | 103% | 117% | 110% | 102% | 85.5% | 55.5% | 49.7% | 39% | 13.8% | 114% | 122% | 113% | 122% | 113% | 116% | 81.7% | 52% | 53.2% | 33.5% | 21.8% | 118% | 110% | 107% | 110% | 103% | 106% | 50.7% | 41.7% | 36.9% | 39.7% | 35%
c1cc(OCCN2CCCCC2)cc(-c2n[nH]c3ccc(-c4nc[nH]n4)cc23)c1 | 109% | 114% | 110% | 116% | 117% | 118% | 121% | 116% | 122% | 123% | 124% | 112% | 111% | 118% | 116% | 123% | 114% | 114% | 132% | 128% | 128% | 111% | 99.4% | 111% | 114% | 19.2% | 117% | 116% | 121% | 115% | 108% | 123% | 116%
c1ccc2c(Oc3nc(Nc4ccc(N5CCOCC5)cc4)c4ncn(C5CCCCC5)c4n3)cccc2c1 | 116% | 118% | 126% | 132% | 126% | 121% | 126% | 132% | 134% | 137% | 130% | – | – | – | – | – | – | – | – | – | – | – | – | – | – | – | – | – | – | – | – | – | –
N#Cc1c(C2CCNCC2)cc(-c2c(O)cccc2OCC2CC2)nc1N | 113% | 113% | 112% | 110% | 108% | 108% | 106% | 107% | 101% | 106% | 92% | 116% | 125% | 123% | 117% | 109% | 97.2% | 108% | 105% | 105% | 106% | 91.3% | 114% | 116% | 119% | 126% | 105% | 114% | 111% | 107% | 107% | 99.7% | 85.9%
C[Se]CCC(N)C(=O)O (stereo unspecified) | 88.7% | 86.3% | 89.6% | 84.9% | 88.4% | 85.1% | 87.4% | 88.7% | 78.8% | 78.8% | 78.6% | 77.1% | 84.8% | 81.9% | 82.6% | 85.9% | 84.4% | 81.6% | 79.6% | 83.1% | 79% | 75.6% | 85.9% | 77.2% | 83.2% | 85.1% | 88.2% | 85.8% | 74.9% | 76.4% | 80.7% | 78.1% | 79%
CC1(C)OC/2=C(\[C@H](NCC3=CC=CC=C3)[C@@H]1O)C(=O)C4=CC=CC=C4C2=O | 102% | 106% | 107% | 104% | 106% | 108% | 102% | 94% | 96.4% | 47.8% | 6.77% | 100% | 102% | 102% | 115% | 96.4% | 99.8% | 98.8% | 88.3% | 71.8% | 18.7% | 6.26% | 98.5% | 94.9% | 95.1% | 101% | 101% | 101% | 101% | 96.7% | 75.8% | 54.6% | 5.89%
c1cc(-c2sc(-c3ccncc3)c(-c3ccncc3)c2-c2ccncc2)ccn1 | 101% | 109% | 108% | 115% | 121% | 123% | 118% | 107% | 110% | 112% | 106% | 97.9% | 114% | 102% | 113% | 121% | 123% | 121% | 126% | 110% | 112% | 104% | 97.3% | 111% | 109% | 117% | 115% | 120% | 124% | 118% | 111% | 113% | 98.9%
